Data as given in patent US20050003449A1, “Method for determining molecular affinities for human serum albumin” (priority 2003, published 2005).

How the values were obtained:
[1] = biological target: HSA (fraction V) (Homo sapiens, UniProt P02768); assay: biochemical
[2] = biological target: T1, HSA (V) (Homo sapiens, UniProt P02768); assay: Isothermal titration calorimetry of the probe with HSA; format: binding; conditions: ITC, PBS
T1 construct: Human serum albumin, fraction V, with a purity ≧95% as indicated by cellulose acetate electrophoresis; purchased Calbiochem 12666
Description: The bottom plot represents the isothermal titrating calorimetry results integrated enthalpies and least-squares curve fit for the probe interaction with HSA (V) in PBS.
Isothermal titration calorimetry experiments were performed using an OMEGA titrating microcalorimeter from Microcal, Inc. (Northampton, Mass.). Data collection, analysis, and plotting were performed using a Windows-based software package (Origin 5.0) supplied by the instrument vendor. The titrating microcalorimeter consisted of a sample and reference cell held in an adiabatic enclosure. The calorimeter was calibrated by comparing the measured areas of applied heat pulses to known values. Known and experimentally measured values agreed to within 2%.
The probe was prepared in DMSO at 10 mM and diluted to 500 μM in PBS. the probe and HSA solutions were degassed prior to analysis. The reference cell was filled with PBS. A 20 μM solution of HSA in PBS was placed in the 1.37 mL sample cell and the probe (0.5 mM) was held in a 250 μL syringe. Thirty injections (6 μL each) of the probe were made by a computer-controlled stepper motor into the sample cell filled with HSA held at 37° C. The syringe stir rate was 400 rpm. The heat adsorbed or released with each injection was measured by a thermoelectric device connected to a Microcal nanovolt preamplifier. Titration isotherms for the binding interactions were comprised of the differential heat flow for each injection. Heats of dilution obtained by injecting ligand into dialysate buffer were minor but were subtracted prior to fitting the data. Isotherms fit well to a single site model (Wiseman, T., et. al. Anal. Biochem (1989) 179, 131-137) using an iterative nonlinear least-squares algorithm included with the instrument.
All parameters were floated during the iterations until a minimum %^2 was obtained between experimental and fit data. […] The change in free energy (ΔG) and change in entropy (ΔS) were determined using the Gibbs' free energy equation. […]

Kd [1]: 0.39 µM
enthalpy change for the interaction [2]: -10.4 kcal/M
Kd ([2]; read-out: average affinity for all binding interactions): 15 µM
molecules of the probe bound per HSA (stoichiometry) ([2]; single-site model): approximately 2
SMILES: Cn1c(/C=C/c2ccc(C#N)cc2C(=O)O)cc2ccccc21 [the probe, 5-cyano-2-[(E)-2-(1-methyl-1H-indol-2-yl)ethenyl]benzoic acid]
